Data: article PMC5948259, “A phase I study to assess the mass balance, excretion, and pharmacokinetics of [^14C]-ixazomib, an oral proteasome inhibitor, in patients with advanced solid tumors” (Investigational New Drugs, 2017)
Several values for one entry are separate records, joined by “and”; a condition that tells them apart may be missing. Equal values may be shown once.

Legend:
[1] = test system: plasma proteins, primarily serum albumin; parameters: method as in PMID 27121262, PMID 27196567; details: cited from earlier work
[2] = cited from earlier work
[3] = test system: CYP1A2; parameters: method as in earlier work; details: 10 μM, exceeding clinical concentrations; cited from earlier work
[4] = test system: CYP2C19; parameters: method as in earlier work; details: 10 μM, exceeding clinical concentrations; cited from earlier work
[5] = parameters: method as in PMID 28290121; details: population PK estimate; cited from earlier work
[6] = cited from earlier work; remark: listed apart in the source
[7] = Safety and tolerability (treatment-emergent adverse events) of ixazomib in patients with advanced solid tumors; format: in vivo, human
Protocol: (§1) The primary objectives of the study were: (1) to assess the mass balance (i.e., cumulative excretion of TRA in urine and feces) of ixazomib following a single oral solution dose of 4.1 mg [^14C]-ixazomib containing approximately 500 nCi of TRA (specific activity of 125 nCi/mg); and (2) to characterize the PK of ixazomib in plasma and urine, and of TRA in plasma and whole blood, after a single oral solution dose of 4.1 mg [^14C]-ixazomib. The secondary objective was to assess the safety and tolerability of multiple-dose ixazomib administration in patients with advanced solid tumors or lymphoma.
(§2) This study was conducted in two parts: a 35-day PK cycle (Part A), followed by repeated 28-day treatment cycles (Part B; Fig. 1). In Part A of the study, patients who met the inclusion and exclusion criteria were admitted to the study clinic on the morning of day 1 for the initial confinement period (days 1–8). Patients received a single 10 mL oral solution dose of 4.1 mg [^14C]-ixazomib containing approximately 500 nCi of TRA, followed by 3 × 10 mL water rinses of the dosing cup. Patients then drank approximately 200 mL of water. Patients returned to the clinic on days 14, 21, 28, and 35 for a 24 h overnight clinic visit. Non-radiolabeled doses of ixazomib (4 mg capsule) were administered on days 14 and 21. After completing their day 35 assessments in Part A, patients were permitted to continue into Part B of the study, where they received non-radiolabeled ixazomib (4 mg capsules) once weekly on days 1, 8, and 15 of each 28-day treatment cycle until disease progression or unacceptable toxicity. All doses of ixazomib were administered on an empty stomach, at least 1 h before or at least 2 h after food.

[8] = test system: CYP3A4; parameters: method as in earlier work; details: 10 μM, exceeding clinical concentrations; cited from earlier work
[9] = parameters: method as in PMID 28800141; details: cited from earlier work
[10] = test system: CYP2C9; parameters: method as in earlier work; details: 10 μM, exceeding clinical concentrations; cited from earlier work
[11] = test system: advanced solid tumors; assay: Disease status during the study (efficacy, not a formal endpoint); format: in vivo, human; details: for Time on study with long-term stable disease: single-agent ixazomib
Protocol: as §2

[12] = Mass balance: recovery of TRA in urine and feces by accelerator mass spectrometry; format: in vivo, human; details: for Total recovery (%) of TRA in urine and feces: days 1–35
Protocol: as §1, §2
Plasma and whole blood samples were collected at the following time points after ixazomib administration on day 1 of Part A: 0 (predose), 0.5, 1, 2, 3, 4, 8, 24, 48, 72, 96, 120, 144, 168, 312 (day 14), 480 (day 21), 648 (day 28), and 816 (day 35) h post dose. Complete urinary and fecal output was collected continuously during the initial confinement period of Part A (days 1–8). Patients were discharged from the clinic on day 8 and returned on days 14, 21, 28, and 35 for a 24 h overnight visit. Urinary and fecal output was collected during each of these 24 h overnight clinic visits. Patients were also instructed to collect all feces at home for the 24 h period before each overnight clinic visit (days 13, 20, 27, and 34).
To achieve enhanced analytical sensitivity, accelerator mass spectrometry (AMS) was used to determine TRA in urine, feces, whole blood, and plasma samples. […] At the testing facility (Accium BioSciences, Seattle, WA, USA), samples were assigned a unique tracking number, labeled, and stored at −70 °C until further analysis. Samples were subsequently removed from storage, thawed at room temperature, and thoroughly mixed. A known aliquot of each specimen was transferred to a pre-baked quartz tube and a known amount of carbon carrier added. Samples were then dried using vacuum centrifugation and submitted for graphitization; a known amount of each specimen was combusted and then reduced to graphite for measurement of total ^14C in the sample [22]. The resulting iron-graphite mixture was pressed into individual cathodes and submitted for AMS measurement on a National Electrostatics 5.2.1.Corporation (NEC) 1.5SDH Compact AMS System (Middleton, WI) running data acquisition software developed by NEC. Total carbon measurements were performed on a Shimadzu V-Series Total 5.2.2.Organic Carbon Analyzer, which uses oxidative combustion combined with non-dispersive infrared detection for the determination of total carbon concentrations. […]

Compound: CC(C)C[C@H](NC(=O)CNC(=O)c1cc(Cl)ccc1Cl)B(O)O [ixazomib]
- Bound to plasma proteins [1]: 99%
- Higher total systemic exposure of ixazomib ([2]; moderate and severe hepatic impairment): 20%
- Effect of mild hepatic impairment (total bilirubin ≤1.5 x ULN) on ixazomib PK ([2]; population PK analyses): no clinically meaningful effect
- Effect of mild renal impairment (CrCl ≥30 mL/min) on ixazomib PK ([2]; population PK analyses): no clinically meaningful effect
- Higher total systemic exposure of ixazomib compared with normal renal function ([2]; severe renal impairment and end-stage renal disease): 39%
- Plasma exposures versus patients with normal organ function ([2]; severe renal impairment, end-stage renal disease requiring dialysis, moderate or severe hepatic impairment, dedicated phase I studies): increased
- Estimated relative contribution of 1A2 to metabolism [3]: 26%
- Estimated relative contribution of 2C19 to metabolism [4]: 5%
- Absolute oral bioavailability [5]: 58%
- Steady-state volume of distribution [5]: 543 L
- Systemic clearance [5]: 1.86 L/h
- Terminal disposition phase half-life (t1/2) [5]: 228 h
- Median time to first maximum observed concentration (Tmax) ([6]; after oral administration): approximately 1 h
- Effect of a high-fat meal on ixazomib absorption [6]: decreases both the rate and extent of ixazomib absorption
- Geometric mean t1/2 [6]: 228 h
- Abdominal pain incidence ([7]; human, in vivo): 43%
- Constipation incidence ([7]; human, in vivo): 29%
- Decreased appetite incidence ([7]; human, in vivo): 43%
- Diarrhea incidence ([7]; human, in vivo): 71%
- Dry mouth incidence ([7]; human, in vivo): 14%
- Headache incidence ([7]; human, in vivo): 43%
- Nausea incidence ([7]; human, in vivo): 29%
- Patients experiencing a grade 3 AE (influenza and platelet count decreased) ([7]; human, in vivo): two patients
- Patients with a drug-related event ([7]; human, in vivo): 86%
- Premature discontinuation or dose reduction due to an adverse event ([7]; human, in vivo): No patients
- Serious adverse event (influenza, deemed unrelated to study drug) ([7]; human, in vivo): One patient
- TEAEs affecting the gastrointestinal system ([7]; human, in vivo): all patients experiencing an event
- Vomiting incidence ([7]; human, in vivo): 29%
- Deaths on study ([7]; safety population N = 7): no patients died while on study
- Estimated relative contribution of 3A4 to metabolism [8]: 42%
- Reduction of plasma exposures (AUC) of ixazomib ([9]; co-administration of rifampin): 74%
- Effect of strong CYP3A inhibitors on ixazomib PK ([9]; ketoconazole and clarithromycin): no significant effect
- Estimated relative contribution of 2C9 to metabolism [10]: < 1%
- Patients who developed progressive disease during the study period ([11]; 7 patients enrolled): 5 patients
- Time on study with long-term stable disease ([11]; patient with cholangiocarcinoma): 162 days
- Time on study with long-term stable disease ([11]; patient with ovarian cancer): 427 days
- Cumulative TRA recovered in feces (days 1–35, %) of administered dose ([12]; Mean (SD), N = 5): 21.8% and 21.8 (3.41) %
- Cumulative TRA recovered in urine (days 1–35, %) of administered dose ([12]; Mean (SD), N = 5): 62.1% and 62.1 (21.2) %
- Total recovery (%) of TRA in urine and feces ([12]; Mean (SD), N = 5): 83.9 (20.7) %
- Cumulative TRA recovered in feces (days 1–35, %) of administered dose ([12]; Patient 001): 18.3%
- Cumulative TRA recovered in urine (days 1–35, %) of administered dose ([12]; Patient 001): 40.8%
- Total recovery (%) of TRA in urine and feces ([12]; Patient 001): 59.1%
- Cumulative TRA recovered in feces (days 1–35, %) of administered dose ([12]; Patient 002): 18.7%
- Cumulative TRA recovered in urine (days 1–35, %) of administered dose ([12]; Patient 002): 96.0%
- Total recovery (%) of TRA in urine and feces ([12]; Patient 002): 115%
- Cumulative TRA recovered in feces (days 1–35, %) of administered dose ([12]; Patient 005): 26.4%
- Cumulative TRA recovered in urine (days 1–35, %) of administered dose ([12]; Patient 005): 58.5%
- Total recovery (%) of TRA in urine and feces ([12]; Patient 005): 84.9%
- Cumulative TRA recovered in feces (days 1–35, %) of administered dose ([12]; Patient 006): 23.7%
- Cumulative TRA recovered in urine (days 1–35, %) of administered dose ([12]; Patient 006): 49.3%
- Total recovery (%) of TRA in urine and feces ([12]; Patient 006): 73.0%
- Cumulative TRA recovered in feces (days 1–35, %) of administered dose ([12]; Patient 007): 21.9%
- Cumulative TRA recovered in urine (days 1–35, %) of administered dose ([12]; Patient 007): 65.7%
- Total recovery (%) of TRA in urine and feces ([12]; Patient 007): 87.6%
- Daily increment in excretion of TRA ([12]; after day 28): < 1%
- Mean cumulative excretion of TRA in urine and feces ([12]; by day 14 post dose): 59.0%
- Mean total recovery of TRA in urine and feces ([12]; day 28 (plateau of excretion rate)): 79.4%
- Orally administered dose absorbed into the systemic circulation, suggested by urinary recovery ([12]; inferred from urinary TRA recovery): at least 62%
